The values that follow come from patent US20070202079A1, “Therapeutic compositions and methods useful in modulating protein tyrosine phosphatases” (priority 2006, published 2007).

Type in all cases: biochemical
Assay [1] addresses T1, SHP-1 (Mus musculus, UniProt P29351).
T1 construct: made in house
Description: in vitro PTPase assay, GST/SHP-1. The conditions noted are these: for inhibitory activity against SHP-1: 3-4 μg/ml or 10-100 μg/ml. As to the method: In vitro PTPase activities were measured using the commercial protein tyrosine phosphatase assay kit (Upstate Biotechnology, Inc. (“UBI”)) following established procedure known to one of skill in the art. […] Briefly, 0.01 μg of GST/PTPase fusion proteins was incubated in 50 μl of Tris buffer (10 mM Tris, pH 7.4) containing different concentrations of inhibitors or chemicals (0-1,000 μg/ml) at 22° C. for 10 minutes, followed by addition of 0.2 mM of the phosphotyrosine peptide and incubation at 22° […] 100 μl of Malachite Green solution was added and incubated for 5 minutes, and the absorbance at 660 nm was measured after 5 minutes.
To assess the reversibility of inhibition of SHP-1 by PTPase inhibitors, GST/SHP-1 fusion protein bound on glutathione beads were pre-incubated in cold Tris buffer or Tris buffer containing the PTPase inhibitors at 4° C. for 30 minutes. The beads were then either subjected to in vitro PTPase assays or washed 3 times in Tris buffer then subjected to in vitro PTPase assays.
Briefly, individual PTPases (0.1 μg/reaction) in 50 μL of PTPase buffer (50 mM Tris, pH 7.4) were incubated at 22° C. for 10 minutes or as indicated in the absence or presence of inhibitory compounds. Substrates (0.2 mM phosphotyrosine peptide) were then added and allowed to react at 22° C. for 18 hrs. PTPase activity of individual reactions was measured by adding 100 μL of malachite green solution (UBI) and then quantifying the amounts of free phosphate cleaved by the PTPase from the peptide substrate by spectrometry (OD660 nm). […] Relative PTPase activities were calculated based on the formula: (PTPase activity in the presence of an inhibitory compound/PTPase activity in the absence of the compound)× 100%. To assess the reversibility of PTPase inhibition, GST fusion proteins of the PTPases bound on glutathione beads (Pharmacia) were pre-incubated with cold Tris buffer (50 mM Tris, pH 7.0) or Tris buffer containing the inhibitor at 4° C. for 30 minutes. The beads were then washed three times in cold Tris buffer or not washed prior to subjecting to in vitro PTPase assays.

Assay [2] deals with T2, PRL-3 (Homo sapiens, UniProt O75365).
T2 construct: cDNAs of human PRL-1, PRL-2 and PRL-3 coding region were derived by RT-PCR; made in house; host or cells: DH5a bacteria (E. coli)
The assay is described as follows: in vitro PTPase assay, recombinant PRL-3. The conditions noted are these: for remaining PRL-3 PTPase activity: 0.1-100 μg/ml. From the text:
Sodium stibogluconate, suramin, sodium orthovanadate and GST fusion protein of SHP-1 have been described previously (Pathak et al., J. Immunol. 167, 3391 (2001)). Meglumine antimonate was obtained from Aventis. cDNAs of human PRL-1, PRL-2 and PRL-3 coding region were derived by RT-PCR from H9 cells (Safai, et al., Lancet 1, 1438 (1984)) and inserted in frame into the pGEX vector. cDNA of PRL-1R86 was generated by recombinant DNA technique using PRL-1 cDNA as template following established procedures (Jiao, et al., Mol. Cell. Biol. 16, 6985 (1996)). GST fusion proteins of the PRL phosphatases were prepared from DH5a bacteria transformed with the pGEX fusion protein constructs as described previously (Yi, et al., Mol. Cell. Biol. 12, 836 (1992)). cDNAs encoding the PRLs tagged at the N-termini with the Flag epitope (Castrucci, et al., J. Virol. 66, 4647 (1992)) were generated via recombinant DNA technique, sequenced to confirm their identities and cloned into the pBabepuro vector (Yang, et al., Blood 91, 3746 (1998)). Anti-Flag monoclonal antibody (M2, Sigma) was purchased from a commercial source. A synthetic phosphotyrosine peptide (Arg-Arg-Leu-Ile-Glu-Asp-Ala-Gle-Tyr-Al- -a-Ala-Arg-Gly (SEQ ID NO: 3), wherein the tyrosine is phosphorylated; UBI) and DiFMUP (6, 8-difluoro-4-methylumbelliferyl phosphate, Molecular Probes) were purchased as substrates for PTPase assays.
In vitro PTPase assays were used to determine the effects of compounds on recombinant PTPases, following established procedures using a synthetic phosphotyrosine peptide or DiFMUP as the substrate (Pathak et al., J. Immunol. 167, 3391 (2001)). Briefly, individual PTPases (0.1 μg/reaction) in 50 μL of PTPase buffer (50 mM Tris, pH 7.4) were incubated at 22° C. for 10 minutes or as indicated in the absence or presence of inhibitory compounds. Substrates (0.2 mM phosphotyrosine peptide) were then added and allowed to react at 22° C. for 18 hrs. PTPase activity of individual reactions was measured by adding 100 μL of malachite green solution (UBI) and then quantifying the amounts of free phosphate cleaved by the PTPase from the peptide substrate by spectrometry (OD660 nm). PTPase assays using DiFMUP as a substrate were conducted following a previously described procedure (Matter, et al., Biochem. Biophys. Res. Comm. 283, 1061 (2001)). Relative PTPase activities were calculated based on the formula: (PTPase activity in the presence of an inhibitory compound/PTPase activity in the absence of the compound)× 100%. To assess the reversibility of PTPase inhibition, GST fusion proteins of the PTPases bound on glutathione beads (Pharmacia) were pre-incubated with cold Tris buffer (50 mM Tris, pH 7.0) or Tris buffer containing the inhibitor at 4° C. for 30 minutes. The beads were then washed three times in cold Tris buffer or not washed prior to subjecting to in vitro PTPase assays.

In assay [3] the target is T3, PRL-2 (Homo sapiens, UniProt Q12974).
T3 construct: cDNAs of human PRL-1, PRL-2 and PRL-3 coding region were derived by RT-PCR; made in house; host or cells: DH5a bacteria (E. coli)
The assay is described as follows: in vitro PTPase assay, recombinant PRL-2. From the text:
(§1) Sodium stibogluconate, suramin, sodium orthovanadate and GST fusion protein of SHP-1 have been described previously (Pathak et al., J. Immunol. 167, 3391 (2001)). Meglumine antimonate was obtained from Aventis. cDNAs of human PRL-1, PRL-2 and PRL-3 coding region were derived by RT-PCR from H9 cells (Safai, et al., Lancet 1, 1438 (1984)) and inserted in frame into the pGEX vector. cDNA of PRL-1R86 was generated by recombinant DNA technique using PRL-1 cDNA as template following established procedures (Jiao, et al., Mol. Cell. Biol. 16, 6985 (1996)). […]
(§2) In vitro PTPase assays were used to determine the effects of compounds on recombinant PTPases, following established procedures using a synthetic phosphotyrosine peptide or DiFMUP as the substrate (Pathak et al., J. Immunol. 167, 3391 (2001)). […] PTPase activity of individual reactions was measured by adding 100 μL of malachite green solution (UBI) and then quantifying the amounts of free phosphate cleaved by the PTPase from the peptide substrate by spectrometry (OD660 nm). […] Relative PTPase activities were calculated based on the formula: (PTPase activity in the presence of an inhibitory compound/PTPase activity in the absence of the compound)× 100%. […]

Assay [4] has as its system GSTm8. Description: in vitro PTPase assay, GSTm8. The conditions noted are these: 3-4 μg/ml or 10-100 μg/ml. From the text: In vitro PTPase assays were used to determine the effects of levamisole (Sigma), pentamidine (American Pharmaceutical Partners, Inc.), and ketoconazole (Sigma) on recombinant PTPases, following established procedures (Pathak et al., J. Immunol. 167, 3391 (2001); Pathak et al., Leukemia 16, 2285 (2002), Yi et al., J. Immunol. 169, 5978 (2002)) using a synthetic phosphotyrosine peptide or DiFMUP as the substrate as detailed above in section I.A.2.

Assay [5] addresses T4, PRL-1 (Homo sapiens, UniProt Q93096).
T4 construct: cDNAs of human PRL-1, PRL-2 and PRL-3 coding region were derived by RT-PCR; made in house; host or cells: DH5a bacteria (E. coli)
The assay is described as follows: in vitro PTPase assay, recombinant PRL-1. As to conditions: 0.1-100 μg/ml.
Source text: as §1, §2

T2 sequence (O75365 whole entry): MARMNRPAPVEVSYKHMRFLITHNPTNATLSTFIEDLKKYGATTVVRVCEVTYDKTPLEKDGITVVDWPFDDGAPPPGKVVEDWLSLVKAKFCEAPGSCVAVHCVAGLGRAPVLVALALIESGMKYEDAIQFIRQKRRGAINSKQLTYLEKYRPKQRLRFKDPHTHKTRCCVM
T1 sequence (P29351 whole entry): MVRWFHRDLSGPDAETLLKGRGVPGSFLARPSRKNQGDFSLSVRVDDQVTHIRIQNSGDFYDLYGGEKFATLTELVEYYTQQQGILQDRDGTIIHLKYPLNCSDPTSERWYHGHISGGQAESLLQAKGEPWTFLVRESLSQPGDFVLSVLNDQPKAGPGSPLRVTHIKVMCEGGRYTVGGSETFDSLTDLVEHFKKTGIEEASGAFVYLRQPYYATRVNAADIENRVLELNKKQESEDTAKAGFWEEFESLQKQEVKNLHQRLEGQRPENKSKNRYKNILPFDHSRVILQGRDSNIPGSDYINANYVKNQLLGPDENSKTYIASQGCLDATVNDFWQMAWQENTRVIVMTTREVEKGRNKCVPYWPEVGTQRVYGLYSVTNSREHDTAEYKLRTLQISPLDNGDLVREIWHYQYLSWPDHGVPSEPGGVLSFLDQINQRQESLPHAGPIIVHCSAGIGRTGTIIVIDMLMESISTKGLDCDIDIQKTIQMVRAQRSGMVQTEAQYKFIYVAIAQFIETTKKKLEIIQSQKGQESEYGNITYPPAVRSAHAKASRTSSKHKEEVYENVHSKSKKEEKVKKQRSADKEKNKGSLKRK
T4 sequence (Q93096 whole entry): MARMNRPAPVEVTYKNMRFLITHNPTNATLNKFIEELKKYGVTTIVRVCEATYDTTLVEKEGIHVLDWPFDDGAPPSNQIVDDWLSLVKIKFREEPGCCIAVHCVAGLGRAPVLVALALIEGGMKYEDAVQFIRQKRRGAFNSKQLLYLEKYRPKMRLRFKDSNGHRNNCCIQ
T3 sequence (Q12974 whole entry): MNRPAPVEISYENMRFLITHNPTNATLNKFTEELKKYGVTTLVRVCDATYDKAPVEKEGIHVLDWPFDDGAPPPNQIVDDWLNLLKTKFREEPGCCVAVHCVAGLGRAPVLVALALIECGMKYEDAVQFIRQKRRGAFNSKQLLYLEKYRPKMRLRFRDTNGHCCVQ

In the case of `CC(=O)N1CCN(c2ccc(OCC3COC(Cn4ccnc4)(c4ccc(Cl)cc4Cl)O3)cc2)CC1` (centres unmarked) [ketoconazole], in assay [1], the “inhibitory activity against SHP-1” value was “no obvious inhibitory activity”. Further, the “remaining PRL-3 PTPase activity” value in assay [2] is listed as 25-40%. Besides, in assay [3], the “activity against PRL-2” value is “not effective”. In assay [4], the “inhibitory activity against GSTm8” value is reported as “no obvious inhibitory activity”. For the same compound, the “retained PRL-1 PTPase activity” value in assay [5] is 60-70%.
As for `N=C(N)c1ccc(OCCCCCOc2ccc(C(=N)N)cc2)cc1` [pentamidine], the “inhibitory activity against SHP-1” value in assay [1] is given as “no obvious inhibitory activity”. Moreover, the “remaining PRL-3 PTPase activity” value in assay [2] is recorded as 20-30%. For the same compound, the “activity against PRL-2” value in assay [3] is given as “not effective”. Further, the “inhibitory activity against GSTm8” value in assay [4] is reported as “no obvious inhibitory activity”. Besides, in assay [5], the “retained PRL-1 PTPase activity” value is listed as 70-80%.
For the compound `O.O.O.O.O.O.O.O.O.O=C([O-])[C@@H]1[O][Sb]2([O-])([O][Sb]34([OH])[O][C@H]([C@H](O)CO)[C@H]([O]3)[C@H](C(=O)[O-])[O]4)[O][C@H]([C@H](O)CO)[C@@H]1[O]2.[Na+].[Na+].[Na+]` [sodium stibogluconate], the “activity of parental mixture against recombinant SHP-1” value in assay [1] (Sb concentration of 10 μg/ml) is “inactivated SHP-1”. Moreover, the “inhibition of GST/SHP-1 after washing (reversibility)” value in assay [1] (pre-incubated 30 min at 4 °C, beads washed 3 times) is given as “not affected by washing”. Moreover, in assay [2], the “inhibition of PRL-3 after washing” value is “not relieved by a washing process”. Besides, the “inactivation of PRL-3 with prolonged pre-incubation” value in assay [2] (10 μg/ml, pre-incubation 30 or 60 minutes) was “nearly complete inactivation”.
